Assay [1] addresses T1, S1P1 (Homo sapiens, UniProt P21453). The assay can be described thus: DELFIA GTP-Eu Binding Assay (Assay 3b). The format is biochemical. Details: purchased Lonza; host or cells: CHO cell membranes. The procedure:
The DELFIA GTP-Eu binding assay (PerkinElmer) is a time-resolved fluorometric assay based on GDP-GTP exchange. CHO cell membranes (Lonza) expressing human S1P1 were incubated in 96-well filter plates (Pall, East Hills, N.Y.) in a final volume of 100 μL/well buffer containing 40 μg/mL membrane, 50 mM HEPES, 2 μM GDP, 10 mM MgCl2, 100 mM NaCl, 500 μg/mL Saponin and test compound. Test compounds were tested at maximum concentrations of 10 μM. Compounds were diluted (10 concentration points, 3-fold each) and added to the assay plate at a 1% final DMSO concentration. For each compound, there were duplicate assay plates and each assay plate had duplicate wells per concentration point. The plates were incubated for 30 min at room temperature on a plate shaker at low speed. GTP-Eu was added to each well (10 μL, 10 nM final concentration) and the plate was incubated for an additional 30 min with slow shaking The wells were washed with ice cold GTP washing buffer (3×150 μL) using a vacuum manifold and the assay plates read in an EnVision plate reader (PerkinElmer) at an excitation wavelength of 340 nm and an emission wavelength of 615 nm. To determine agonist activity, percent activity was calculated as [(test compound−background)/(positive control−background)*100], where background is the fluorescence in absence of compound and the positive control is the fluorescence from membranes incubated with 1 μM S1P (Avanti). The percent activities were plotted against compound concentration to determine IC50 or EC50 using XLFit (IDBS).
(§1) Assay 1 is the CNG cAMP Assay as described in Biological Example 1. Assay 2a and 2b are the Tango™ β-arrestin Recruitment Assay in HEK293 and U2OS cells, respectively, as described in Biological Example 2. Assay 3a is the hS1P1R GTPγS Binding Assay as described in Biological Example 3. Assay 3b is the GTP-Eu Binding Assay as described in Biological Example 3. EC50's were measured unless otherwise noted. […] In the table, “nt” means the Compound was not tested and “no” means the compound was tested but had no measurable activity under the assay conditions employed.
Target sequence in this assay (P21453 whole entry): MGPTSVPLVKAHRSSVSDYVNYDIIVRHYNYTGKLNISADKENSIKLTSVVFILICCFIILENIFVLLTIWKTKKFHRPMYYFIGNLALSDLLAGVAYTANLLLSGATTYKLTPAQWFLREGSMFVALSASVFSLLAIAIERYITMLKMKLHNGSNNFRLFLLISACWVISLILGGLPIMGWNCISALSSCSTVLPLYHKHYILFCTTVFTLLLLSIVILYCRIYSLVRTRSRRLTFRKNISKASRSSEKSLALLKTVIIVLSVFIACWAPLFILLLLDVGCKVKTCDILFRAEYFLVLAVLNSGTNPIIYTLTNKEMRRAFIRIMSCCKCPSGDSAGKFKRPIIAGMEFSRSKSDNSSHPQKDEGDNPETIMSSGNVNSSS

Assay [2] concerns the target T1, S1P1. Kind of assay: CNG cAMP Assay (Assay 1). The format is cell-based. Set-up: host or cells: HEK293 cells expressing the CNG channel. As to conditions: read-out: Assay 1 EC50. The method in brief: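 HEK293 cells expressing CNG channel and S1P1, membrane-potential dye loaded; compounds (top 10 μM, 10-point 3-fold, 1.8% DMSO) added with 25 μM Ro 20-1724, 500 nM NECA and 10 nM S1P for 90 min. T90/T0 fluorescence (Ex 350/Em 590 nm) normalised to NECA-alone vs DMSO; EC50 fitted.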
Target sequence in this assay (P21453 whole entry): as above

Assay [3] concerns the target T1, S1P1. The assay can be described thus: Tango β-arrestin Recruitment Assay in HEK293 cells (Assay 2a). Details: linker with TEV protease (N1a) cleavage site (C); host or cells: HEK293, transiently transfected. The format is cell-based. As to conditions: Tango β-arrestin Recruitment Assay, read-out: Assay 2a EC50. The method in brief:
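HEK293 cells transiently expressing S1P1 (TEV-cleavable tTA fusion) with β-arrestin2–TEV; compounds up to 10 μM, 10-point 3-fold, 1% DMSO, 30 min then 16–18 h at 37 °C. Luciferase luminescence normalised to 5 μM S1P as 100% and DMSO as background; EC50 from percent-activity curves.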
Target sequence in this assay (P21453 whole entry): as above
Target sequence in this assay (P32121 whole entry partner): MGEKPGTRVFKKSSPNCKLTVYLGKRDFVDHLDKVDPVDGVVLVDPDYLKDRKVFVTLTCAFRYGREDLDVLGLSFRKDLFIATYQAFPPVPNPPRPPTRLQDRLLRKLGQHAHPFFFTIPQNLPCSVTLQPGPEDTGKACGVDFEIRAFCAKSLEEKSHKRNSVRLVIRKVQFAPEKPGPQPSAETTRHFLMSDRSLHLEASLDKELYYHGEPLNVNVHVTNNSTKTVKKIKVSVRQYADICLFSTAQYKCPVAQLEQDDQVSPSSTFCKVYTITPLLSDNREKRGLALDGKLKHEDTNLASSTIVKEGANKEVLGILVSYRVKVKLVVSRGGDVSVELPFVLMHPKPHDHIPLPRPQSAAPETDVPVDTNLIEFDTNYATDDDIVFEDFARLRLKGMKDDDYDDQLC
(Activated receptors often draw arrestin, which recruitment assays turn into a signal.)

A further assay concerns the target T2, hS1P1R (hEdg1) (Homo sapiens, UniProt P21453).
T2 construct: purchased Lonza
The assay can be described thus: hS1P1R GTPγS Binding Assay (Assay 3a). The format is biochemical. The procedure: The hS1P1R GTPγS binding assay was carried out at room temperature in 96 well non-binding surface assay plates. The reaction in each well contained 4 μg hS1P1R (hEdg1) membrane protein (Lonza), 30 μM GDP, 0.1 nM [^35S]GTPγS, 0.25% fatty acid free BSA, and serially diluted hS1P1R agonist compound in 200 μL assay buffer (25 mM Tris-HCl PH 7.9, 100 mM NaCl, 3 mM MgCl2, and 0.2 mM EGTA). After one hour of incubation, 0.9 mg of WGA (Wheat Germ Agglutinin) SPA beads in 50 μL of assay buffer was added to each well. The SPA beads were spun down after an additional one hour incubation. The radioactivity of the bound GTPγS was counted by reading the assay plate using a MicroBeta.
as §1

Molecules are shown by their SMILES.

T2 sequence (P21453 whole entry): as the sequence (P21453 whole entry) above

As for `O=C(O)CCc1ccc(-c2noc(-c3cn4cc(C(F)(F)F)cc(Cl)c4n3)n2)cc1Cl` [Entry 7], the EC50 – broadly, the concentration needed to bring the measured effect to its halfway point – is 0.1 to 0.5 µM at S1P1 [1] (relative EC50 was measured (footnote 1), read-out: Assay 3b Relative EC50); at most 0.1 µM at S1P1 [2]; at most 0.1 µM at S1P1 [3]; 1 to 5 µM on hS1P1R (hEdg1).

Turning to `Cc1cc(C2CC2C(=O)O)c(F)cc1-c1noc(-c2cn3cc(C(F)(F)F)cc(Cl)c3n2)n1` (stereo not drawn) [Example 79, 2-(4-{5-[8-chloro-6-(trifluoromethyl)imidazo[1,2-a]pyridin-2-yl]-1,2,4-oxadiazol-3-yl}-2-fluoro-5-methylphenyl)cyclopropanecarboxylic acid], the EC50 is 0.1 to 0.5 µM at S1P1 [1] (read-out: Assay 3b EC50), at most 0.1 µM at S1P1 [2], at most 0.1 µM on S1P1 [3] and 0.5 to 1 µM at hS1P1R (hEdg1).

Take `C[C@@H](CO)Oc1cc(Cl)c(-c2noc(-c3cn4cc(C(F)(F)F)cc(Cl)c4n3)n2)cc1F` [Example 96, (2S)-2-[(5-chloro-4-{5-[8-chloro-6-(trifluoromethyl)imidazo[1,2-a]pyridin-2-yl]-1,2,4-oxadiazol-3-yl}-2-fluorophenyl)oxy]propan-1-ol]: the EC50 was 0.1 to 0.5 µM at S1P1 [1] (read-out: Assay 3b EC50), at most 0.1 µM on S1P1 [2], at most 0.1 µM at S1P1 [3] and at most 0.1 µM on hS1P1R (hEdg1).

For `Cc1cc(-c2noc(-c3cn4cc(C(F)(F)F)cc(Cl)c4n3)n2)cc(C)c1OCC(O)CO` (stereo not drawn) [Example 161, 3-[(4-{5-[8-chloro-6-(trifluoromethyl)imidazo[1,2-a]pyridin-2-yl]-1,2,4-oxadiazol-3-yl}-2,6-dimethylphenyl)oxy]propane-1,2-diol], the EC50 on S1P1 [1] (read-out: Assay 3b EC50) was 0.1 to 0.5 µM; at S1P1 [2], at most 0.1 µM; on S1P1 [3], at most 0.1 µM; at hS1P1R (hEdg1), at most 0.1 µM.

In the case of `NCCOc1ccc(-c2nnc(-c3cn4cc(C(F)(F)F)cc(Cl)c4n3)s2)c(Cl)c1` [Example 244, 2-[(3-chloro-4-{5-[8-chloro-6-(trifluoromethyl)imidazo[1,2-a]pyridin-2-yl]-1,3,4-thiadiazol-2-yl}phenyl)oxy]ethanamine], the EC50 was 0.5 to 1 µM on S1P1 [1] (read-out: Assay 3b EC50), at most 0.1 µM on S1P1 [2], 0.1 to 0.5 µM at S1P1 [3] and 0.1 to 0.5 µM at hS1P1R (hEdg1).

Turning to `CC(CO)Oc1ccc(-c2noc(-c3cn4cc(C(F)(F)F)cc(Cl)c4n3)n2)c(Cl)c1` (stereo not drawn) [Example 256, 2-[(3-chloro-4-{5-[8-chloro-6-(trifluoromethyl)imidazo[1,2-a]pyridin-2-yl]-1,2,4-oxadiazol-3-yl}phenyl)oxy]propan-1-ol], the EC50 was 0.1 to 0.5 µM on S1P1 [1] (read-out: Assay 3b EC50), at most 0.1 µM on S1P1 [2], at most 0.1 µM on S1P1 [3] and 0.5 to 1 µM at hS1P1R (hEdg1).

As for `CC(CO)Oc1cc(Cl)c(-c2noc(-c3cn4cc(C(F)(F)F)cc(Cl)c4n3)n2)cc1F` (stereo not drawn) [Example 259, 2-[(5-chloro-4-{5-[8-chloro-6-(trifluoromethyl)imidazo[1,2-a]pyridin-2-yl]-1,2,4-oxadiazol-3-yl}-2-fluorophenyl)oxy]propan-1-ol], the EC50 is 0.1 to 0.5 µM on S1P1 [1] (read-out: Assay 3b EC50), at most 0.1 µM at S1P1 [2], at most 0.1 µM at S1P1 [3] and at most 0.1 µM on hS1P1R (hEdg1).

Take `O=C(O)CCc1ccc(-c2nnc(-c3cn4cc(C(F)(F)F)cc(Cl)c4n3)s2)c(Cl)c1` [Example 283, 3-(3-chloro-4-{5-[8-chloro-6-(trifluoromethyl)imidazo[1,2-a]pyridin-2-yl]-1,3,4-thiadiazol-2-yl}phenyl)propanoic acid]: the EC50 is 0.1 to 0.5 µM on S1P1 [1] (read-out: Assay 3b EC50), at most 0.1 µM on S1P1 [2], at most 0.1 µM on S1P1 [3] and 0.1 to 0.5 µM on hS1P1R (hEdg1).

Turning to `Cc1c(I)ccc2nc(-c3nc(-c4cc(F)c(CCC(=O)O)cc4Cl)no3)cn12` [Example 300, 3-{5-chloro-2-fluoro-4-[5-(6-iodo-5-methylimidazo[1,2-a]pyridin-2-yl)-1,2,4-oxadiazol-3-yl]phenyl}propanoic acid], the EC50 on S1P1 [1] (read-out: Assay 3b EC50) was 0.1 to 0.5 µM; at S1P1 [2], at most 0.1 µM; at S1P1 [3] it was at most 0.1 µM; at hS1P1R (hEdg1), 1 to 5 µM.

The values are drawn from patent US20100160369A1, “S1P1 Agonists and Methods of Making And Using” (EXELIXIS, INC., priority 2008, published 2010).
